In one data set the test system is mice. In words: analgesia test using phenylbenzoquinone. To be noted: Mus musculus, ip, read-out: Analgesia test ED 50. It counts as in vivo. On the procedure: Exp. Biol. Med. 95, 729(1957).
The compounds of the invention were administered intraperitoneally.

Data set [1] is described as follows: Acute toxicity, intraperitoneal (Miller and Tainter). The following applies: mouse, in vivo, ip; mice, i.p.; read-out: Acute toxicity LD 50. On the procedure: Acute toxicity was evaluated intraperitoneally in mice according to the method described by MILLER and TAINTER in Proc. Soc. Exp. Biol. Med. 57, 261 (1944).

For `CC(C)(C)C12CNCC(CO1)O2` (stereo not drawn) [Code number 1], the ED50 with mice turned out to be 18 mg/kg. The LD50 in data set [1] was 400 mg/kg.

On to `c1csc(C23CNCC(CO2)O3)c1` (stereo not drawn) [Code number 4], for which, in the data set on mice, the ED50 came to 24 mg/kg. Besides, the LD50 in data set [1] was over 400 mg/kg.

On to `Fc1ccc(C23CNCC(CO2)O3)cc1` (stereo not drawn) [Code number 7, 5-parafluorophenyl-6,8-dioxa-3-azabicyclo [3.2.1] octane meleate], for which the ED50 in the data set on mice came to 10 mg/kg. Also, in data set [1], the LD50 was found to be 300 mg/kg.

With `Clc1cccc(C23CNCC(CO2)O3)c1` (stereo not drawn) [Code number 9], the ED50 with mice worked out at 10 mg/kg. The LD50 in data set [1] worked out at 240 mg/kg.

As for `COc1ccccc1C12CNCC(CO1)O2` (stereo not drawn) [compound 14], in the data set on mice, the ED50 is 8 mg/kg. In addition, the LD50 in data set [1] is 300 mg/kg.

For the compound `N#Cc1ccc(C23CNCC(CO2)O3)cc1` (stereo not drawn) [compound 19], the ED50 in the data set on mice amounted to 19 mg/kg. The LD50 in data set [1] came to 280 mg/kg.

Consider `O=[N+]([O-])c1ccc(C23CNCC(CO2)O3)cc1` (stereo not drawn) [compound 21], for which the ED50 with mice was determined as 10 mg/kg. Besides, the LD50 in data set [1] was found to be 290 mg/kg.

For `Clc1ccc(C23CNCC(CO2)O3)cc1Cl` (stereo not drawn) [compound 23], the ED50 with mice turned out to be 10 mg/kg. Also, the LD50 in data set [1] was 300 mg/kg.

As for `CCN1CC2COC(c3ccc(F)cc3)(C1)O2` (stereo not drawn) [compound 25], the ED50 with mice came out at 14 mg/kg. In addition, the LD50 in data set [1] was 280 mg/kg.

In the case of `c1ccc(CN2CC3COC(C4CCCCC4)(C2)O3)cc1` (stereo not drawn) [compound 30], in the data set on mice, the ED50 is 26 mg/kg. In addition, in data set [1], the LD50 was over 400 mg/kg.

As for `Fc1ccc(C23CCCNCC(CO2)O3)cc1` (stereo not drawn) [compound 32], the ED50 with mice came to 9 mg/kg. Further, in data set [1], the LD50 was determined as 140 mg/kg.

For `C1C2CC3CC1CC(C14CNCC(CO1)O4)(C2)C3` (stereo not drawn) [compound 36], the ED50 in the data set on mice amounted to 30 mg/kg. Also, the LD50 in data set [1] amounted to 185 mg/kg.

As to `c1ccc2cc(C34CNCC(CO3)O4)ccc2c1` (stereo not drawn) [compound 39], the ED50 in the data set on mice is 8 mg/kg. Besides, the LD50 in data set [1] worked out at 310 mg/kg.

On to `c1ccc(-c2ccc(C34CNCC(CO3)O4)cc2)cc1` (stereo not drawn) [compound 40], for which the ED50 with mice is 24 mg/kg. Moreover, in data set [1], the LD50 stood at 310 mg/kg.

For the compound `c1cc(C23CNCC(CO2)O3)ccc1C1CCCCC1` (stereo not drawn) [compound 42], the ED50 in the data set with mice turned out to be 15 mg/kg. Moreover, in data set [1], the LD50 is over 400 mg/kg.

`CC(=O)Nc1ccc(C23CNCC(CO2)O3)cc1` (stereo not drawn) [compound 44]: in the data set on mice, the ED50 turned out to be 7 mg/kg. Further, the LD50 in data set [1] worked out at 380 mg/kg.

With `c1cncc(C23CNCC(CO2)O3)c1` (stereo not drawn) [compound 48], the ED50 in the data set with mice came out at 58 mg/kg. Moreover, in data set [1], the LD50 was over 400 mg/kg.

For the compound `O=C(O)c1ccc(C23CNCC(CO2)O3)cc1` (stereo not drawn) [compound 54], the ED50 in the data set on mice is 38 mg/kg. The LD50 in data set [1] is over 400 mg/kg.

Regarding `COc1ccc2cc(C34CNCC(CO3)O4)ccc2c1` (stereo not drawn) [compound 56], the ED50 in the data set on mice is 21 mg/kg. Besides, the LD50 in data set [1] worked out at 240 mg/kg.

In the case of `c1ccc2c(C34CNCC(CO3)O4)cccc2c1` (stereo not drawn) [compound 58], in the data set on mice, the ED50 is 28 mg/kg. The LD50 in data set [1] was 160 mg/kg.

`O=C(c1ccccc1)c1cccc(C23CNCC(CO2)O3)c1` (stereo not drawn) [compound 59]: the ED50 with mice amounted to 13.5 mg/kg. In addition, the LD50 in data set [1] worked out at 155 mg/kg.

The values above are taken from US4463004A, “Dioxazabicyclic derivatives” (Delalande S.A., priority 1981, dated 1984).
